Measurements taken from the supplement of paper PMC12317010.

Test: collision cross section in nitrogen (drift tube, single-field); higher = larger gas-phase ion size
[1] = ion type: [M+H], ion source: APCI, ion mode: Positive
[2] = ion type: [M+H], ion source: ESI, ion mode: Positive
[3] = ion type: [M+Na], ion source: ESI, ion mode: Positive
[4] = ion type: [M-H], ion source: ESI, ion mode: Negative
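Note: chemical standards at 10 µM analysed by drift tube IMS-QTOF MS in about 3.95 torr nitrogen, mean of duplicate injections differing ≤1%, mass error below 10 ppm.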

collision cross section in nitrogen [1] [Å²]	collision cross section in nitrogen [2] [Å²]	collision cross section in nitrogen [3] [Å²]	collision cross section in nitrogen [4] [Å²]	SMILES	collision cross section in nitrogen (ion type: [M+], ion source: APCI, ion mode: Positive) [Å²]
178.5	177.8	189		CC(C)(Oc1ccc(CCNC(=O)c2ccc(Cl)cc2)cc1)C(=O)O [Bezafibrate]	
154.8	154.9	172.2		CCNc1nc(NC(C)(C)C)nc(OC)n1 [Terbumeton]	
	161.8		157.7	C[C@]1(Cn2ccnn2)[C@H](C(=O)O)N2C(=O)C[C@H]2S1(=O)=O [Tazobactam sodium]	
	187.6	195.9	186.6	CC1Cc2ccccc2N1NC(=O)c1ccc(Cl)c(S(N)(=O)=O)c1 (configuration not stated) [Indapamide]	
144.1	143.6		131.3	Nc1nc2ccc([N+](=O)[O-])cc2s1 [2-Amino-6-nitrobenzothiazole]	
155.5	155.6	169.5		CCOc1ccc(NC(=O)CC(C)O)cc1 (configuration not stated) [3-Hydroxy-4-butyrophenetidide]	
163.2	163.2	178.6		CCCOC(=O)c1ccc(C(=O)OCCC)nc1 [Dipropyl 2,5-pyridinedicarboxylate]	
		249.8	239.5	COc1cc([C@@H]2c3cc4c(cc3[C@@H](O[C@@H]3O[C@@H]5CO[C@@H](C)O[C@H]5[C@H](O)[C@H]3O)[C@H]3COC(=O)[C@H]23)OCO4)cc(OC)c1O [Etoposide]	
			203	C[C@H](CCC(=O)O)[C@H]1CC[C@H]2[C@@H]3CC[C@@H]4C[C@H](O)CC[C@]4(C)[C@H]3CC[C@]12C [Lithocholic acid]	
158.6		172.4	155.5	Cn1cnc([N+](=O)[O-])c1Sc1ncnc2nc[nH]c12 [Azathioprine]	
			168.1	O=C1Nc2ccc(Cl)cc2[C@@](C#CC2CC2)(C(F)(F)F)O1 [Efavirenz]	

Second part, the compound before the results:

SMILES	collision cross section in nitrogen [1] [Å²]	collision cross section in nitrogen [2] [Å²]	collision cross section in nitrogen [3] [Å²]	collision cross section in nitrogen [4] [Å²]	collision cross section in nitrogen (ion type: [M+], ion source: APCI, ion mode: Positive) [Å²]
Nc1ccc(Cl)cc1C(=O)c1ccccc1 [2-Amino-5-chlorobenzophenone]				150.4	
CSc1nc(N=[N+]=[N-])nc(NC(C)C)n1 [Aziprotryne]	149.1	148.9			
CCCCCCCC/C=C\CCCCCCCC(=O)OCC(O)CO (configuration not stated) [Glyceryl monooleate]			197.2		
Oc1ccc(Cl)cc1Cc1ccccc1 [Clorophene]				149.3	
CC(C)(C)c1cc(-n2nc3ccccc3n2)c(O)c(C(C)(C)C)c1 [2-(2'-Hydroxy-3',5'-di-tert-butylphenyl)benzotriazole]				192.5	186
CN1C(=O)CCS(=O)(=O)C1c1ccc(Cl)cc1 (configuration not stated) [Chlormezanone]				154.1	
CCCCCCCCCCCCCC(=O)OCC(O)CO (racemic) [(+/-)-2,3-Dihydroxypropyl tetradecanoate]			183.7		
OC[C@@H](O)[C@@H](O)[C@H](O)[C@@H](O)CO [D-Glucitol]			143.4	132.3	
O=c1[nH]cc(S(=O)(=O)Cl)c(=O)[nH]1 [2,4-Dioxo-1,2,3,4-tetrahydropyrimidine-5-sulfonyl chloride]		140.8			
CCCCCCCCC=CCCCCCCCC1=NCCN1CCO [2-(8-Heptadecenyl)-2-imidazoline-1-ethanol]	199.3	199.8		196.6	
